# According to patent US9951065B2 (Gilead Sciences, Inc., priority 2015, dated 2018):
# Molecular target: T1, IDO1 (Homo sapiens, UniProt P14902)
# T1 construct: HeLa cells were treated with a test compound in the presence of IFNγ, which induces IDO1 expression; host or cells: H1-HeLa cells, IDO1 induced with IFNγ
# Experiment: Cell-based (HeLa) assay for measurement of IDO1 inhibition (kynurenine levels in supernatant after IFNγ induction)
# Details: HeLa cells, IFNγ-induced IDO1, kynurenine in supernatant after 48 hour incubation; geometric mean of a minimum of four determinations
# Protocol: Example 509. Cell-Based (HeLa) Assay for Measurement of IDOL Inhibition
# To measure IDO1 inhibition in tissue culture, HeLa cells were treated with a test compound in the presence of IFNγ, which induces IDO1 expression. Following incubation, cell supernatants were assayed for kynurenine levels, an indicator of IDO1 activity.
# H1-HeLa cells (ATCC #CRL-1958) were seeded in 384-well plates (Greiner #82051-282) at a volume of 50 μL/well in DMEM (Corning #15-018-CM) supplemented with 10% FBS (Corning #35-011-CV) and 1% P/S/G (Corning #30-009-CL) at a density of 1,250 cells/well and incubated overnight at 37° C., 5% CO2/100% humidity. The following day, the test compounds were added in DMSO (0.5% final) at various concentrations, and IDO1 was inducibly expressed by the addition of 50 uL/well of […] of INFγ (Peprotech #300-02) in cell plating media. As a […] control, 50 uL of the cell plating media without IFNγ was added to several wells. Following a 48 hour incubation, the plates were spun down at 1,200 RPM for 5 min at 10° C. 65 μL/well of the supernatant was then transferred to new 384-well plates (Thermo #262160) that contained 10 uL/well of 30% TCA (Sigma #TO699), and the plates were sealed and incubated at 60° C. for 30 min. The plates were then centrifuged for 15 min at 2,000 RPM at 10° C. 40 μL/well of the supernatant was transferred to new 384-well plates (Thermo #262160) and was reacted with 40 μL/well of 2% (w/v) p-dimethlyaminobenzaldehyde (Sigma #156417) in glacial acetic acid (Sigma #A6283). The reaction was incubated at room temperature for 10 min and absorbance at 480 nm was read using a PerkinElmer Envision plate reader.
# Data in Table 1 were normalized based on positive (−IFNγ) and negative (+IFNγ) controls and EC50 values were calculated from the fit of the dose response curves to a four-parameter equation. All EC50 values represent geometric mean values of a minimum of four determinations. These assays generally produced results within 2-fold of the reported mean.
# T1 sequence (P14902 whole entry): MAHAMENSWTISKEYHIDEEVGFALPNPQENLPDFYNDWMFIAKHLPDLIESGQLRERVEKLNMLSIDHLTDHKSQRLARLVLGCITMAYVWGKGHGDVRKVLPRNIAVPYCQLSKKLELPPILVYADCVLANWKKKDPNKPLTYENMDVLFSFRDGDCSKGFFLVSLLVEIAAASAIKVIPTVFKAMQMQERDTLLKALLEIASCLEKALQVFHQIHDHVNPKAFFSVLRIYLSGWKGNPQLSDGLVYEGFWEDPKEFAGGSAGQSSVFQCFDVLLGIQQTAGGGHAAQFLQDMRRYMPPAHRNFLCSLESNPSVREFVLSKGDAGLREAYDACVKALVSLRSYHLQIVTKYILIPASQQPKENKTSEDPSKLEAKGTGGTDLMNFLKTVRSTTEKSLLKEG
row,EC50,SMILES
1,5110 nM,"O/N=C(\Nc1ccc(F)c(Cl)c1)c1ccnc2nc(CNCC3CCOC3)[nH]c12 (centres unmarked) [Example 135, N-(3-Chloro-4-fluorophenyl)-N′-hydroxy-2-((((tetrahydrofuran-3-yl)methyl)amino)methyl)-1H-imidazo[4,5-b]pyridine-7-carboximidamide]"
2,698 nM,"COCCCNc1nc2nccc(/C(=N/O)Nc3ccc(F)c(Cl)c3)c2[nH]1 [Example 234, N-(3-chloro-4-fluorophenyl)-N′-hydroxy-2-((3-methoxypropyl)amino)-1H-imidazo[4,5-b]pyridine-7-carboximidamide]"
3,346 nM,"O/N=C(\Nc1ccc(F)c(Cl)c1)c1cc(F)c(F)c2nc(NCCN3CCOCC3)[nH]c12 [Example 23, N-(3-Chloro-4-fluorophenyl)-4,5-difluoro-N′-hydroxy-2-((2-morpholinoethyl)amino)-1H-benzo[d]imidazole-7-carboximidamide]"
4,1790 nM,"O/N=C(\Nc1ccc(F)c(Cl)c1)c1cccc2nc[nH]c12 [Example 8, N-(3-Chloro-4-fluorophenyl)-N′-hydroxy-1H-benzo[d]imidazole-7-carboximidamide]"
5,844 nM,"O/N=C(\Nc1ccc(F)c(Cl)c1)c1ccnc2nc(CCN3CCCCCC3)[nH]c12 [Example 258, 2-(2-(azepan-1-yl)ethyl)-N-(3-chloro-4-fluorophenyl)-N′-hydroxy-1H-imidazo[4,5-b]pyridine-7-carboximidamide]"
6,5160 nM,"O/N=C(\Nc1ccc(F)c(Cl)c1)c1ccnc2nc(CNCC(F)F)[nH]c12 [Example 142, N-(3-Chloro-4-fluorophenyl)-2-(((2,2-difluoroethyl)amino)methyl)-N′-hydroxy-1H-imidazo[4,5-b]pyridine-7-carboximidamide]"
7,2400 nM,"O/N=C(\Nc1ccc(F)c(Cl)c1)c1ccnc2nc(CNc3ccccc3)[nH]c12 [Example 128, N-(3-Chloro-4-fluorophenyl)-N′-hydroxy-2-((phenylamino)methyl)-1H-imidazo[4,5-b]pyridine-7-carboximidamide]"
8,1760 nM,"O/N=C(\Nc1ccc(F)c(Cl)c1)c1ccnc2nc(CNCc3ccccc3)[nH]c12 [Example 115, 2-((Benzylamino)methyl)-N-(3-chloro-4-fluorophenyl)-N′-hydroxy-1H-imidazo[4,5-b]pyridine-7-carboximidamide]"
9,504 nM,"COCCN(C)CCc1nc2nccc(/C(=N/O)Nc3ccc(F)c(Cl)c3)c2[nH]1 [Example 194, N-(3-Chloro-4-fluorophenyl)-N′-hydroxy-2-(2-((2-methoxyethyl)(methyl)amino)ethyl)-1H-imidazo[4,5-b]pyridine-7-carboximidamide]"
10,4870 nM,"O/N=C(\Nc1ccc(OC(F)(F)F)cc1)c1ccnc2nc[nH]c12 [Example 66, N′-Hydroxy-N-(4-(trifluoromethoxy)phenyl)-1H-imidazo[4,5-b]pyridine-7-carboximidamide]"
11,1370 nM,"O/N=C(\Nc1ccc(F)c(Cl)c1)c1ccnc2nc(CNCc3ccccn3)[nH]c12 [Example 121, N-(3-Chloro-4-fluorophenyl)-N′-hydroxy-2-(((pyridin-2-ylmethyl)amino)methyl)-1H-imidazo[4,5-b]pyridine-7-carboximidamide]"
12,2300 nM,"CC(C)CNCCc1nc2nccc(/C(=N/O)Nc3ccc(F)c(Cl)c3)c2[nH]1 [Example 206, N-(3-chloro-4-fluorophenyl)-N′-hydroxy-2-(2-(isobutylamino)ethyl)-3H-imidazo[4,5-b]pyridine-7-carboximidamide]"
13,3030 nM,"O/N=C(\Nc1ccc(Cl)c2ccccc12)c1ccnc2nc[nH]c12 [Example 105, N-(4-Chloronaphthalen-1-yl)-N′-hydroxy-1H-imidazo[4,5-b]pyridine-7-carboximidamide]"
14,839 nM,"CC(C)NCc1nc2c(F)c(F)cc(/C(=N/O)Nc3cccc(Cl)c3)c2[nH]1 [Example 27, N-(3-Chlorophenyl)-4,5-difluoro-N′-hydroxy-2-((isopropylamino)methyl)-1H-benzo[d]imidazole-7-carboximidamide]"
15,4770 nM,"O=S(=O)(CCNc1nc2nccc(/C(=N/O)Nc3ccc(F)c(Cl)c3)c2[nH]1)N1CCOCC1 [Example 236, N-(3-chloro-4-fluorophenyl)-N′-hydroxy-2-((2-(morpholinosulfonyl)ethyl)amino)-1H-imidazo[4,5-b]pyridine-7-carboximidamide]"
16,3260 nM,"OCCNc1nc2c(F)c(F)cc(/C(=N/O)Nc3ccc(F)c(Cl)c3)c2[nH]1 [Example 295, N-(3-chloro-4-fluorophenyl)-4,5-difluoro-N′-hydroxy-2-((2-hydroxyethyl)amino)-1H-benzo[d]imidazole-7-carboximidamide]"
17,793 nM,"O/N=C(\Nc1ccc(F)c(Cl)c1)c1ccc(Cl)c2nc[nH]c12 [Example 6, 4-Chloro-N-(3-chloro-4-fluorophenyl)-N′-hydroxy-1H-benzo[d]imidazole-7-carboximidamide]"
18,1370 nM,"NC1(CNc2nc3nccc(/C(=N/O)Nc4ccc(F)c(Cl)c4)c3[nH]2)CC1 [Example 241, 2-(((1-aminocyclopropyl)methyl)amino)-N-(3-chloro-4-fluorophenyl)-N′-hydroxy-1H-imidazo[4,5-b]pyridine-7-carboximidamide]"
19,460 nM,"CNc1nc2nccc(/C(=N/O)Nc3ccc(F)c(Cl)c3)c2[nH]1 [Example 158, N-(3-Chloro-4-fluorophenyl)-N′-hydroxy-2-(methylamino)-1H-imidazo[4,5-b]pyridine-7-carboximidamide]"
20,382 nM,"Nc1nc2c(F)ccc(/C(=N/O)Nc3ccc(F)c(Cl)c3)c2[nH]1 [Example 22, 2-Amino-N-(3-chloro-4-fluorophenyl)-4-fluoro-N′-hydroxy-1H-benzo[d]imidazole-7-carboximidamide]"
21,639 nM,"O/N=C(\Nc1ccc(Cl)c(Cl)c1)c1ccnc2nc[nH]c12 [Example 86, N-(3,4-Dichlorophenyl)-N′-hydroxy-1H-imidazo[4,5-b]pyridine-7-carboximidamide]"

# Same assay, conditions: HeLa cells, IFNγ-induced IDO1, kynurenine in supernatant, 48 hour incubation; geometric mean of a minimum of four determinations
row,EC50,SMILES
1,1070 nM,"Cc1nnc(CNc2nc3nccc(/C(=N/O)Nc4ccc(F)c(Cl)c4)c3[nH]2)o1 [Example 427, N-(3-chloro-4-fluorophenyl)-N′-hydroxy-2-(((5-methyl-1,3,4-oxadiazol-2-yl)methyl)amino)-1H-imidazo[4,5-b]pyridine-7-carboximidamide]"
2,692 nM,"O/N=C(\Nc1cccc(Br)c1)c1cc(F)c(F)c2nc(NCCN3CCCC3)[nH]c12 [Example 331, N-(3-bromophenyl)-4,5-difluoro-N′-hydroxy-2-((2-(pyrrolidin-1-yl)ethyl)amino)-1H-benzo[d]imidazole-7-carboximidamide]"
3,180 nM,"CN(C)CCNc1nc2c(F)c(F)cc(/C(=N/O)Nc3cccc(Br)c3)c2[nH]1 [Example 430, N-(3-bromophenyl)-2-((2-(dimethylamino)ethyl)amino)-4,5-difluoro-N′-hydroxy-1H-benzo[d]imidazole-7-carboximidamide]"
4,> 10000 nM,"NS(=O)(=O)NCCNc1nc2c(F)c(F)cc(/C(=N/O)Nc3ccc(F)c(Cl)c3)c2[nH]1 [Example 338, N-(3-chloro-4-fluorophenyl)-4,5-difluoro-N′-hydroxy-2-((2-(sulfamoylamino)ethyl)amino)-1H-benzo[d]imidazole-7-carboximidamide]"
5,959 nM,"CN1[C@@H]2CCC(Nc3nc4c(F)c(F)cc(/C(=N/O)Nc5ccc(F)c(Cl)c5)c4[nH]3)[C@H]1CC2 (stereo partly drawn) [Example 469, N-(3-chloro-4-fluorophenyl)-4,5-difluoro-N′-hydroxy-2-(((1R,5R)-8-methyl-8-azabicyclo[3.2.1]octan-2-yl)amino)-1H-benzo[d]imidazole-7-carboximidamide]"
6,6250 nM,"CN1CCN(CCNc2nc3c(F)c(F)cc(/C(=N/O)Nc4ccc(F)c(Cl)c4)c3[nH]2)CC1=O [Example 449, N-(3-chloro-4-fluorophenyl)-4,5-difluoro-N′-hydroxy-2-((2-(4-methyl-3-oxopiperazin-1-yl)ethyl)amino)-1H-benzo[d]imidazole-7-carboximidamide]"
7,3240 nM,"CC(Cc1nc2nccc(/C(=N/O)Nc3ccc(F)c(Cl)c3)c2[nH]1)N(C)C (centres unmarked) [Example 328, N-(3-chloro-4-fluorophenyl)-2-(2-(dimethylamino)propyl)-N′-hydroxy-1H-imidazo[4,5-b]pyridine-7-carboximidamide]"
8,3860 nM,"O/N=C(\Nc1ccc(F)c(Cl)c1)c1cc(F)c(F)c2nc(NCc3cccnc3)[nH]c12 [Example 343, N-(3-chloro-4-fluorophenyl)-4,5-difluoro-N′-hydroxy-2-((pyridin-3-ylmethyl)amino)-1H-benzo[d]imidazole-7-carboximidamide]"
